This passage reports Ki results from paper PMC5024786 (Organic letters, 2015).

Each structure is given as a SMILES string.

The experiment concerns the target T1, ACC deaminase (1-aminocyclopropane-1-carboxylic acid deaminase) (Pseudomonas sp. ACP, UniProt Q00740).
T1 sequence (Q00740 1-338): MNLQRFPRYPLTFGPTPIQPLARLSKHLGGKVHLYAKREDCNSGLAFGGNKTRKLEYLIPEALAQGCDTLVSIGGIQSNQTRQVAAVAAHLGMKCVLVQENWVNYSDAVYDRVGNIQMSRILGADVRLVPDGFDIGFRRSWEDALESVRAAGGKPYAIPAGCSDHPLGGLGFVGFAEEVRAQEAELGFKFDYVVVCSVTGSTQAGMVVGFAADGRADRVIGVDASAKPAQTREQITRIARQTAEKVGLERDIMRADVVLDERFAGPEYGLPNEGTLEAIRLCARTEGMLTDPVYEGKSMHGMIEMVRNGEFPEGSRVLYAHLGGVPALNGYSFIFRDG
The experiment is classed as biochemical.

One may read the Ki as a measure of affinity in units of concentration, obtained from inhibition or displacement. A low value points to higher affinity. As for `NC1(C(=O)O)CC1(F)F` (racemic) [compound 3, 1-Amino-2,2-difluorocyclopropane-1-carboxylic acid], affinity was put at a Ki of 120 ± 40 nM.
